Results taken from patent US5721103A, “Trienoic retinoid compounds and methods” (Ligand Pharmaceuticals Incorporated, priority 1995, dated 1998).
pEC50: −log10 of the molar value.

Experiments:
Format in all cases: cell-based
RARs and RXRs = experiment: Co-transfection assay, RAR and RXR receptors taken together; conditions: for activity on the RARs or RXRs (in words): any of the RARs or RXRs; for RAR activity (in words): RARs
Procedure: Utilizing the "cis-trans" or "co-transfection" assay described by Evans et al., Science, 240:889-95 (May 13, 1988), the disclosure of which is herein incorporated by reference, the retinoid compounds of the present invention were tested and found to have strong, specific activity as either selective RAR agonists, selective RXR agonists, or as pan-agonist activators of both RAR and RXR receptors. This assay is described in further detail in U.S. Pat. Nos. 4,981,784 and 5,071,773, the disclosures of which are incorporated herein by reference.
In the co-transfection assay, a cloned cDNA for an IR (e.g., human RARα, RARβ, RXRγ) under the control of a constitutive promoter (e.g., the SV 40 promoter) is introduced by transfection (a procedure to induce cells to take up foreign genes) into a background cell substantially devoid of endogenous IRs. This introduced gene directs the recipient cells to make the IR protein of interest. A second gene is also introduced (co-transfected) into the same cells in conjunction with the IR gene. This second gene, comprising the cDNA for a reporter protein, such as firefly luciferase (LUC), is controlled by an appropriate hormone responsive promoter containing a hormone response element (HRE). This reporter plasmid functions as a reporter for the transcription-modulating activity of the target IR. Thus, the reporter acts as a surrogate for the products (mRNA then protein) normally expressed by a gene under control of the target receptor and its native hormone.
The co-transfection assay can detect small molecule agonists or antagonists of target IRs. Exposing the transfected cells to an agonist ligand compound increases reporter activity in the transfected cells. This activity can be conveniently measured, e.g., by increasing luciferase production, which reflects compound-dependent, IR-mediated increases in reporter transcription. […] . Increasing concentrations of a suspected antagonist will decrease the reporter signal (e.g., luciferase production). The co-transfection assay is therefore useful to detect both agonists and antagonists of specific IRs. Furthermore, it determines not only whether a compound interacts with a particular IR, but whether this interaction mimics (agonizes) or blocks (antagonizes) the effects of the native regulatory molecules on target gene expression, as well as the specificity and strength of this interaction.
To determine RAR and/or RXR agonist activity of the compounds of the present invention, the CV-1 cells were transiently transfected by calcium phosphate coprecipitation according to the procedure of Berger et al., 41 J. Steroid Biochem. Mol. Biol., 733 (1992) with the following receptor expressing plasmids: pRShRARα: Giguere et at., 330 Nature, 624 (1987); pRShRARβ and pRShRARγ, Ishikawa et al., 4 Mol. Endocrin., 837 (1990); pRShRXRα, Mangelsdorf et at., 345 Nature, 224 (1990); and pRSmRXRβ and pRSmRXRγ, Mangelsdorf et al., 6 Genes & Devel., 329 (1992), the disclosures of which are herein incorporated by reference. Each of these receptor expressing plasmids was co-transfected at a concentration of 5 ng/well, along with a basal reporter plasmid at 100 ng/well, the internal control plasmid pRS-β-Gal at 50 ng/well and filler DNA, pGEM at 45 ng/well.

RXRβ = target: T1, RXRβ (Mus musculus, UniProt P28704); experiment: Co-transfection assay, RXRβ agonist activity; conditions: CV-1 cells, 40 hours, read-out: Potency (EC50) RXRβ
T1 construct: expressed in transfected cells; host or cells: CV-1 (African green monkey kidney)
T1 sequence (P28704 1-520): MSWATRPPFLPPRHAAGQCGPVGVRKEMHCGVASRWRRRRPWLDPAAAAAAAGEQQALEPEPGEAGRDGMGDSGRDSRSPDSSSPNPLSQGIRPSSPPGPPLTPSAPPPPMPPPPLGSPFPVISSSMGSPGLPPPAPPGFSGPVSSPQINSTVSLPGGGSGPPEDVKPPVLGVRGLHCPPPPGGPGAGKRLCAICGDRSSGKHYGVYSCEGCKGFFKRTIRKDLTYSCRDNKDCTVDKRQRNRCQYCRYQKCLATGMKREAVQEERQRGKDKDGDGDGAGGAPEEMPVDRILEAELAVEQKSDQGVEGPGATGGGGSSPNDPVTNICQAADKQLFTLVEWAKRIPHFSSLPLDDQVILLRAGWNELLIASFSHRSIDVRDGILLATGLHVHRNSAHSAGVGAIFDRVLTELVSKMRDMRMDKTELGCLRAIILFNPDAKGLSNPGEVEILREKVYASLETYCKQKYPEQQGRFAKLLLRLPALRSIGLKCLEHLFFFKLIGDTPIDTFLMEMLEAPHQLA

RARγ = target: T2, RARγ (Homo sapiens, UniProt P13631); experiment: Co-transfection assay, RARγ agonist activity; conditions: CV-1 cells, 40 hours, read-out: Potency (EC50) RARγ
T2 construct: expressed in transfected cells; host or cells: CV-1 (African green monkey kidney)
T2 sequence (P13631 1-454): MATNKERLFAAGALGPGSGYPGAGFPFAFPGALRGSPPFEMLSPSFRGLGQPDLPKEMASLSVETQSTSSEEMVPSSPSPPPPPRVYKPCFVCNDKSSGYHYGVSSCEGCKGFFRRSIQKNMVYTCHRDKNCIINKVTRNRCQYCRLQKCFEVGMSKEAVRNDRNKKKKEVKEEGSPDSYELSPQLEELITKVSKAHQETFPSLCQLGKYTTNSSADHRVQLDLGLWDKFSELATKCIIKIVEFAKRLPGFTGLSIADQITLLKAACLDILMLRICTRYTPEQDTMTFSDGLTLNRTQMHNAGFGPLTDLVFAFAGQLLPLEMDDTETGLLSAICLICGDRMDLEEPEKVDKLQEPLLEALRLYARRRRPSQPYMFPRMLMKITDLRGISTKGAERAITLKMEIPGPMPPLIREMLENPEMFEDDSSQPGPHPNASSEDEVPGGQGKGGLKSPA

RARα = target: T3, RARα (Homo sapiens, UniProt P10276); experiment: Co-transfection assay, RARα agonist activity; conditions: CV-1 cells, 40 hours, read-out: Potency (EC50) RARα
T3 construct: expressed in transfected cells; host or cells: CV-1 (African green monkey kidney)
T3 sequence (P10276 1-462): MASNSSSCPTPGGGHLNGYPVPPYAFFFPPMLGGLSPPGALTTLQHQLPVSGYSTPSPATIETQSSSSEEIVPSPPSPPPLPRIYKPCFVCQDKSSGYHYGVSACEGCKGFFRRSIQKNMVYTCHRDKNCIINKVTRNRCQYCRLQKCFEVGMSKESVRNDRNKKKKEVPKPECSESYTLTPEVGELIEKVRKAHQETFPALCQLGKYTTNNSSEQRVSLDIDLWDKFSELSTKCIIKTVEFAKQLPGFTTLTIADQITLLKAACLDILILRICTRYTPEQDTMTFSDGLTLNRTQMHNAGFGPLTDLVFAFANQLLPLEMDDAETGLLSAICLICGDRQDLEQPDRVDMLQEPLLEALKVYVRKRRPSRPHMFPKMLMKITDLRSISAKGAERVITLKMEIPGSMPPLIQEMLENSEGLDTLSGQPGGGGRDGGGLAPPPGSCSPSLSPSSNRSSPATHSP

RXRα = target: T4, RXRα (Homo sapiens, UniProt P19793); experiment: Co-transfection assay, RXRα agonist activity; conditions: CV-1 cells, 40 hours, read-out: Potency (EC50) RXRα
T4 construct: expressed in transfected cells; host or cells: CV-1 (African green monkey kidney)
T4 sequence (P19793 1-462): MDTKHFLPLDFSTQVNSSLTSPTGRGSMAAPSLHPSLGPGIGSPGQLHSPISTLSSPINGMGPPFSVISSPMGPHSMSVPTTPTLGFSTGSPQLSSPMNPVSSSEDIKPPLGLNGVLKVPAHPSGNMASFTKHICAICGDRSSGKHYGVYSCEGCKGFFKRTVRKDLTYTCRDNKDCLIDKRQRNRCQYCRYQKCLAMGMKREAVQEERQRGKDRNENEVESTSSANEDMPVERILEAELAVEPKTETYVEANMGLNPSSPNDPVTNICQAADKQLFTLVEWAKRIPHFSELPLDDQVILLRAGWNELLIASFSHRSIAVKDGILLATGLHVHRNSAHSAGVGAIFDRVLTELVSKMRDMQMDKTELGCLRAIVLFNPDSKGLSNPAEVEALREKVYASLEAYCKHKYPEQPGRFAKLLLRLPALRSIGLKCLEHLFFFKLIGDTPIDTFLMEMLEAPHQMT

RXRγ = target: T5, RXRγ (Mus musculus, UniProt P28705); experiment: Co-transfection assay, RXRγ agonist activity; conditions: CV-1 cells, 40 hours, read-out: Potency (EC50) RXRγ
T5 construct: expressed in transfected cells; host or cells: CV-1 (African green monkey kidney)
T5 sequence (P28705 1-463): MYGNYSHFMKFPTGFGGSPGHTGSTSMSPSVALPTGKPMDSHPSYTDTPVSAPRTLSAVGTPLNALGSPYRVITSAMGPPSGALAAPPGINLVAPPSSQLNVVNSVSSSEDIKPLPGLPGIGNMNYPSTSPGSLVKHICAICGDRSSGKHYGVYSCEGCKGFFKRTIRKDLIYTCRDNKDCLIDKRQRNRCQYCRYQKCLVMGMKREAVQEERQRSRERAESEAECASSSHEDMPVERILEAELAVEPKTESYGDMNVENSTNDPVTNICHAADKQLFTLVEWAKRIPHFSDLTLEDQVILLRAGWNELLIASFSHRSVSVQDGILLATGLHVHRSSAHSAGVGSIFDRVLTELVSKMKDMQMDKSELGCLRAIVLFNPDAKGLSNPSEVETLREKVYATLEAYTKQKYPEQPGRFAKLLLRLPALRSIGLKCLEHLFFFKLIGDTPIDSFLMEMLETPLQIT

RARβ = target: T6, RARβ (Homo sapiens, UniProt P10826); experiment: Co-transfection assay, RARβ agonist activity; conditions: CV-1 cells, 40 hours, read-out: Potency (EC50) RARβ
T6 construct: expressed in transfected cells; host or cells: CV-1 (African green monkey kidney)
T6 sequence (P10826 1-448 isoform P10826-2): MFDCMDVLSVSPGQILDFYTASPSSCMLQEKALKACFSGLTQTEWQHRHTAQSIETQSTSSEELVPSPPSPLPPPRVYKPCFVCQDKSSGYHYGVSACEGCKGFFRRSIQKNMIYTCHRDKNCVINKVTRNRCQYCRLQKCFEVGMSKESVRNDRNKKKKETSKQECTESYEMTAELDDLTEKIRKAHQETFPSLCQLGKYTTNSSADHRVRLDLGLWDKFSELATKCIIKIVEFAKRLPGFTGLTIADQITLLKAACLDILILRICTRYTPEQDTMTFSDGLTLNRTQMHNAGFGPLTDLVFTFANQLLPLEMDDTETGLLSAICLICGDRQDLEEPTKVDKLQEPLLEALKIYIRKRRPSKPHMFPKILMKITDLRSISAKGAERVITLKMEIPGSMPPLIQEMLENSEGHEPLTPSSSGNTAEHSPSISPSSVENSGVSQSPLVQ

With COc1ccc(/C(C)=C/C=C/C(C)=C/C(=O)O)cc1OC [A, (2E,4E,6E)-3-methyl-7-(3,4-dimethoxyphenyl)octa-2,4,6-trienoic acid, reference compound] the “activity on the RARs or RXRs (in words)” value (RARs and RXRs) was “no, or virtually no, activity”.

In the case of COc1ccc(/C(C)=C/C=C/C(C)=C/C(=O)O)cc1 [B, (2E,4E,6E)-3-methyl-7-(4-methoxyphenyl)octa-2,4,6-trienoic acid, reference compound], the “activity on the RARs or RXRs (in words)” value (RARs and RXRs) was “no, or virtually no, activity”.

For COc1cc(C)c(/C=C/C=C/C=C(\C)C(=O)O)c(C)c1C [C, (2E,4E,6E)-2-methyl-7-(2,3,6-trimethyl-4-methoxyphenyl)hepta-2,4,6-trienoic acid, reference compound], the “activity on the RARs or RXRs (in words)” value (RARs and RXRs) was “no, or virtually no, activity”.

For CCC/C(=C/C=C/C(C)=C/C(=O)O)c1cc(C(C)(C)C)cc(C(C)(C)C)c1 [Compound 28, (2E, 4E, 6Z)-7-(3,5-Di-t-butylphenyl)-3-methyldeca-2,4,6-trienoic acid], the “RXR activity (in words)” value (RARs and RXRs; RXRs) was “very potent and selective RXR active compound”.

CC(/C=C/C=C1\CCOc2c1cc(C(C)(C)C)cc2C(C)(C)C)=C\C(=O)O [Compound 39, (2E,4E,6E)-6-(6,8,-Di-t-butylchroman-4-ylidene)-3-methylhexa-2,4,6-trienoicacid] was tested, and the “RAR activity (in words)” value (RARs and RXRs) was “extremely potent RAR active compounds”.

CC(/C=C/C=C(\C)c1cc(C(F)(F)F)cc(C(F)(F)F)c1)=C\C(=O)O [Compound 41, (2E, 4E, 6E)-7-(3,5-Di-trifluoromethylphenyl)-3-methylocta-2,4,6-trienoic acid] was tested, and the “RAR activity (in words)” value (RARs and RXRs) was “extremely potent RAR active compounds”.

With C/C(=C/C=C/C(C)=C/C(=O)O)c1cc(C(C)C)cc(C(C)C)c1 [Compound 43, (2E, 4E, 6Z)-7-(3,5-Di-isopropylphenyl)-3-methylocta-2,4,6-trienoic acid] the “potency profile in comparison to 9-cis retinoic acid (in words)” value (RARs and RXRs; versus 9-cis, pan-agonist) was “superior potency profile”.

In the case of CC(/C=C/C=C(\C)c1ccc(C(C)(C)C)cc1)=C\C(=O)O [Compound 44, (2E, 4E, 6E)-7-(4-T-butyl-phenyl)-3-methylocta-2,4,6-trienoic acid], the pEC50 (RXRβ) was 7.68, the pEC50 (RARγ) was 7.48 and the pEC50 (RARα) was 6.65. It also gave a pEC50 (RXRα) of 5.84, a pEC50 (RXRγ) of 6.65 and a pEC50 (RARβ) of 7.43.

With COc1c(C(C)(C)C)cc(/C(C)=C/C=C/C(C)=C/C(=O)O)cc1C(C)(C)C [Compound 47, (2E, 4E, 6E) -3-Methyl-7-(3,5-di-t-butyl-4-methoxyphenyl)octa-2,4,6-trienoic acid] the “RAR activity (in words)” value (RARs and RXRs) was “extremely potent RAR active compounds” and the “selectivity among RARs (in words)” value (RARs and RXRs; RARβ and RARγ) was “selectivity on RARβ and RARγ”.

For COC(/C=C/C=C(\C)c1ccc(C(C)(C)C)cc1)=C/C(=O)O [D, (2E,4E,6E)-3-methoxy-7-(4-t-butylphenyl)octa-2,4,6-trienoic acid, reference compound], the “activity on the RARs or RXRs (in words)” value (RARs and RXRs) was “no, or virtually no, activity”.
